In data set [1] the target is GST P1-1 (Homo sapiens, UniProt P09211). The following applies: purified GST P1-1 isoenzyme; read-out: GST P1-1 inhibition IC50; cited from earlier work.
For data set [2] the following is noted: cited from earlier work.
In data set [3] the target is T1, GSTπ (Homo sapiens, UniProt P09211).
T1 construct: host or cells: HL-60 human promyelocytic leukemia cells
Description: cellular GSTπ inhibition: immunoprecipitable GSTπ in HL-60 cell lysate, Western blot. It is filed as cell-based. On the technique in general: A western blot detects proteins with antibodies after separation by electrophoresis.
Description: RPMI 1640 medium, NuPAGE® LDS sample buffer (non-reducing lithium dodecyl sulfate buffer, Catalog # NP0007), and NuPAGE® Novex 4-12% Bis-Tris polyacrylamide gels (Catalog # NP0321) were obtained from Invitrogen, Inc., Carlsbad, Calif., U.S.A. Complete Mini protease inhibitor cocktail tablets (Catalog # 04 693 124 001) were obtained from Roche Diagnostics, Inc., Indianapolis, Ind., U.S.A., and were used according to package directions. Lysis buffer (50 mM Tris, pH 8.0, 120 mM NaCl, 0.5% NP-40, and 100 mM NaF) was prepared at Telik, Inc., and the protease inhibitors added shortly before use.
HL-60 cells were seeded at 6×10^5 cells/mL in 20 mL RPMI 1640 medium supplemented with 10% fetal bovine serum, 1 mM L-glutamine and 20 μM gentamycin in each of six T75 flasks, and incubated at 37° C. overnight in a 5% CO2 atmosphere. […] The contents of each flask were then treated as follows: the cells were pelleted by centrifugation and the cell pellet washed twice with phosphate-buffered saline. The cells were then lysed by suspending the pellet in 1 mL lysis buffer, and incubating with gentle agitation at 4° C. for 30 minutes. The cell lysate was cleared by centrifugation at 13,000 rpm for 10 minutes, and the protein content of the lysate was measured using the Bio-Rad protein assay kit. Cell lysate containing 1 mg total proteins was incubated at 4° C. overnight with 4.2 μg of purified mouse monoclonal anti-human GSTπ antibody in 1 mL total volume. Protein A/G agarose beads, 50 μL, were added to the mixture and incubated at 4° C. for 1 hour. The beads were collected by centrifugation, washed three times in lysis buffer, and resuspended in 10 μL 1× non-reducing lithium dodecyl sulfate buffer, and the suspension heated at 95° C. for 5 minutes. The proteins from the six cell lysates, together with a molecular weight marker, were then separated by electrophoresis on a 4-12% Bis-Tris gel and transferred to a nitrocellulose membrane. […] The GSTπ protein bands were visualized and the summed intensities of the GST P1-1 dimer and GST P1 monomer bands quantitated on an Odyssey infrared scanner.

The subject of data set [4] is HL-60 promyelocytic leukemia cells. The conditions noted are these: in vitro; cited from earlier work.
For data set [5], the system named is hematopoietic progenitor cells in normal human peripheral blood. The following applies: all three lineages; cited from earlier work.
The conditions of data set [6]: normal animals and animals depleted by cisplatin or fluorouracil; cited from earlier work.
The conditions of data set [7]: MDS clinical trial, interim results; cited from earlier work.
[8] abbreviates: HL-60 cells, 1-40 μM, two hours.

Structures are written as SMILES. Numbered stars: 1 amine (or outer) side, 2 acyl side, 3 side chain; on linkers, the order of the positions; unused ones are H or OH. Square brackets hold non-standard residues; d marks the D form. Peptide text beside a SMILES is read from it. * marks the point of attachment. γGlu = O=C(O)[C@H](CCC(=O)[*:2])N[*:1]; dPhg = N[C@@H](C(=O)O)c1ccccc1; Bn = c1ccc(C*)cc1

T1 sequence (P09211 2-210 limits assumed): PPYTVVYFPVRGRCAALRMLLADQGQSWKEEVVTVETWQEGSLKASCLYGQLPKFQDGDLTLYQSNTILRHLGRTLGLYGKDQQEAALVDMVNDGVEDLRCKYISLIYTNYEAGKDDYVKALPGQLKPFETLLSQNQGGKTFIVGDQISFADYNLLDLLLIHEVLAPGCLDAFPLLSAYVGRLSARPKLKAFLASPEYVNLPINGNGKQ
GST P1-1, sequence (P09211 2-210 limits assumed, species assumed): as the sequence (P09211 2-210 limits assumed) above

As to `N[C@@H](CCC(=O)N[C@@H](CSCc1ccccc1)C(=O)N[C@@H](C(=O)O)c1ccccc1)C(=O)O` [TLK117, L-γ-glutamyl-S-(phenylmethyl)-L-cysteinyl-D-phenylglycine] (γGlu-Cys(Bn)-[dPhg]-OH), the IC50 in data set [1] was about 400 nM. Moreover, in data set [2], the “permeability through cell membrane” value is “poor permeability”.

In turn, `CCOC(=O)[C@@H](N)CCC(=O)N[C@@H](CSCc1ccccc1)C(=O)N[C@@H](C(=O)OCC)c1ccccc1` [TLK199] showed an inhibition at 20 µM in data set [3] (HL-60, 20 μM) of about 90%. Further, in data set [3] (setting [8]), the “cellular GSTπ inhibition (amounts of immunoprecipitable GST P1 and GST P1-1 vs DMSO control)” value was “is a cellular GSTπ inhibitor”; the “concentration dependence of cellular GSTπ inhibitory effect” value was “concentration dependent”. Also, in data set [1], the IC50 is over 200000 nM. Further, the “differentiation of HL-60 cells” value in data set [4] is recorded as “induce the differentiation”. Besides, the “colony formation of hematopoietic progenitor cells” value in data set [5] is “stimulate colony formation”. In addition, in data set [6], the “white blood cell production” value was “increase white blood cell production”. Besides, in data set [7], the hematologic response result is on record as “multilineage hematologic improvement” and the tolerability result is listed as “well tolerated”.

A word on the IC50: it is the point on the concentration scale where inhibition reaches its midpoint. As a reminder, the inhibition is the percentage by which the read-out fell short of the control. High values mean strong suppression, low ones little suppression.
